Laboratory results reported in PubChem BioAssay (NCI).
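All cell lines were grown in 96-well plates and treated with compound for 48 hours. The concentration for full growth arrest is given as TGI.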

Tests used:
Assay in all cases: NCI tumour cell line growth inhibition, 48 h
CAKI-1 renal = tested on: CAKI-1 renal
A549 NSCLC = tested on: A549 NSCLC
SF-268 CNS = tested on: SF-268 CNS
HOP-62 NSCLC = tested on: HOP-62 NSCLC
SF-295 CNS = tested on: SF-295 CNS
UACC-62 melanoma = tested on: UACC-62 melanoma
TK-10 renal = tested on: TK-10 renal
SW-620 colon = tested on: SW-620 colon
EKVX NSCLC = tested on: EKVX NSCLC
M14 melanoma = tested on: M14 melanoma
SR leukemia = tested on: SR leukemia
OVCAR-8 ovarian = tested on: OVCAR-8 ovarian
SNB-75 CNS = tested on: SNB-75 CNS
SK-MEL-28 melanoma = tested on: SK-MEL-28 melanoma
OVCAR-4 ovarian = tested on: OVCAR-4 ovarian
LXFL 529 NSCLC = tested on: LXFL 529 NSCLC
NCI-H460 lung = tested on: NCI-H460 lung
KM20L2 colon = tested on: KM20L2 colon
RXF 393 renal = tested on: RXF 393 renal
SK-OV-3 ovarian = tested on: SK-OV-3 ovarian
MOLT-4 leukemia = tested on: MOLT-4 leukemia
U251 CNS = tested on: U251 CNS
786-0 renal = tested on: 786-0 renal
CCRF-CEM leukemia = tested on: CCRF-CEM leukemia
HOP-18 NSCLC = tested on: HOP-18 NSCLC
SK-MEL-2 melanoma = tested on: SK-MEL-2 melanoma
XF 498 CNS = tested on: XF 498 CNS
A498 renal = tested on: A498 renal
M19-MEL melanoma = tested on: M19-MEL melanoma
ACHN renal = tested on: ACHN renal
HCC-2998 colon = tested on: HCC-2998 colon
NCI-H226 lung = tested on: NCI-H226 lung
DLD-1 colon = tested on: DLD-1 colon
KM12 colon = tested on: KM12 colon
HT29 colon = tested on: HT29 colon
IGROV1 ovarian = tested on: IGROV1 ovarian
SNB-78 CNS = tested on: SNB-78 CNS
HL-60(TB) leukemia = tested on: HL-60(TB) leukemia
HCT-15 colon = tested on: HCT-15 colon
COLO 205 colon = tested on: COLO 205 colon
SF-539 CNS = tested on: SF-539 CNS
HCT-116 colon = tested on: HCT-116 colon
OVCAR-3 ovarian = tested on: OVCAR-3 ovarian
UO-31 renal = tested on: UO-31 renal
SN12C renal = tested on: SN12C renal
DMS 114 small cell lung = tested on: DMS 114 small cell lung
SNB-19 CNS = tested on: SNB-19 CNS
RXF-631 renal = tested on: RXF-631 renal
NCI-H522 lung = tested on: NCI-H522 lung
NCI-H23 lung = tested on: NCI-H23 lung
HOP-92 NSCLC = tested on: HOP-92 NSCLC
DMS 273 small cell lung = tested on: DMS 273 small cell lung
SK-MEL-5 melanoma = tested on: SK-MEL-5 melanoma
MALME-3M melanoma = tested on: MALME-3M melanoma
OVCAR-5 ovarian = tested on: OVCAR-5 ovarian
UACC-257 melanoma = tested on: UACC-257 melanoma
LOX IMVI melanoma = tested on: LOX IMVI melanoma
K-562 leukemia = tested on: K-562 leukemia
RPMI-8226 leukemia = tested on: RPMI-8226 leukemia

`O=C1NC2C=CN(Cc3ccccc3)C=C2C(=O)N2CCCC12` (configuration not stated) gave a TGI (CAKI-1 renal) of over 100 µM, a TGI (A549 NSCLC) of over 100 µM and a TGI (SF-268 CNS) of over 100 µM. It also gave a TGI (HOP-62 NSCLC) of over 100 µM, a TGI (SF-295 CNS) of over 100 µM and a TGI (UACC-62 melanoma) of over 100 µM. For the same compound, the TGI (TK-10 renal) was over 100 µM, the TGI (SW-620 colon) was over 100 µM and the TGI (EKVX NSCLC) was over 100 µM. The TGI (M14 melanoma) was over 100 µM, the TGI (SR leukemia) was over 100 µM and the TGI (OVCAR-8 ovarian) was over 100 µM. For the same compound, the TGI (SNB-75 CNS) was over 100 µM, the TGI (SK-MEL-28 melanoma) was over 100 µM and the TGI (OVCAR-4 ovarian) was over 100 µM. It also gave a TGI (LXFL 529 NSCLC) of over 100 µM, a TGI (NCI-H460 lung) of over 100 µM and a TGI (KM20L2 colon) of over 100 µM. For the same compound, the TGI (RXF 393 renal) was over 100 µM, the TGI (SK-OV-3 ovarian) was over 100 µM and the TGI (MOLT-4 leukemia) was over 100 µM. For the same compound, the TGI (U251 CNS) was over 100 µM, the TGI (786-0 renal) was over 100 µM and the TGI (CCRF-CEM leukemia) was over 100 µM. It also gave a TGI (HOP-18 NSCLC) of over 100 µM, a TGI (SK-MEL-2 melanoma) of over 100 µM and a TGI (XF 498 CNS) of over 100 µM. It also gave a TGI (A498 renal) of over 100 µM, a TGI (M19-MEL melanoma) of over 100 µM and a TGI (ACHN renal) of over 100 µM. It also gave a TGI (HCC-2998 colon) of over 100 µM, a TGI (NCI-H226 lung) of over 100 µM and a TGI (DLD-1 colon) of over 100 µM. It also gave a TGI (KM12 colon) of over 100 µM, a TGI (HT29 colon) of over 100 µM and a TGI (IGROV1 ovarian) of over 100 µM. The TGI (SNB-78 CNS) was over 100 µM, the TGI (HL-60(TB) leukemia) was over 100 µM and the TGI (HCT-15 colon) was over 100 µM. The TGI (COLO 205 colon) was over 100 µM, the TGI (SF-539 CNS) was over 100 µM and the TGI (HCT-116 colon) was over 100 µM. It also gave a TGI (OVCAR-3 ovarian) of over 100 µM, a TGI (UO-31 renal) of over 100 µM and a TGI (SN12C renal) of over 100 µM. It also gave a TGI (DMS 114 small cell lung) of over 100 µM, a TGI (SNB-19 CNS) of over 100 µM and a TGI (RXF-631 renal) of over 100 µM. It also gave a TGI (NCI-H522 lung) of over 100 µM, a TGI (NCI-H23 lung) of over 100 µM and a TGI (HOP-92 NSCLC) of over 100 µM. The TGI (DMS 273 small cell lung) was over 100 µM, the TGI (SK-MEL-5 melanoma) was over 100 µM and the TGI (MALME-3M melanoma) was over 100 µM. For the same compound, the TGI (OVCAR-5 ovarian) was over 100 µM and the TGI (UACC-257 melanoma) was over 100 µM.

`COc1cc([C@@H]2c3cc4c(cc3[C@@H](OC(=O)c3ccccc3)C3COC(=O)[C@@H]32)OCO4)cc(OC)c1O` (some centres not stated) gave a TGI (CAKI-1 renal) of 79.2 µM, a TGI (A549 NSCLC) of 35.6 µM and a TGI (SF-268 CNS) of over 100 µM. It also gave a TGI (HOP-62 NSCLC) of 28.7 µM, a TGI (SF-295 CNS) of over 100 µM and a TGI (TK-10 renal) of over 100 µM. The TGI (SW-620 colon) was over 100 µM, the TGI (OVCAR-8 ovarian) was over 100 µM and the TGI (SNB-75 CNS) was 36.8 µM. The TGI (SK-MEL-28 melanoma) was over 100 µM, the TGI (LOX IMVI melanoma) was 84.5 µM and the TGI (OVCAR-4 ovarian) was over 100 µM. It also gave a TGI (LXFL 529 NSCLC) of over 100 µM, a TGI (NCI-H460 lung) of 20.9 µM and a TGI (SK-OV-3 ovarian) of over 100 µM. The TGI (MOLT-4 leukemia) was 41.4 µM, the TGI (786-0 renal) was 45.5 µM and the TGI (CCRF-CEM leukemia) was over 100 µM. For the same compound, the TGI (HOP-18 NSCLC) was over 100 µM, the TGI (M19-MEL melanoma) was 69 µM and the TGI (ACHN renal) was 18.4 µM. It also gave a TGI (HCC-2998 colon) of over 100 µM, a TGI (HL-60(TB) leukemia) of 15.4 µM and a TGI (COLO 205 colon) of 0.963 µM. The TGI (UO-31 renal) was 33.5 µM, the TGI (K-562 leukemia) was over 100 µM and the TGI (SN12C renal) was 26.9 µM. For the same compound, the TGI (DMS 114 small cell lung) was 0.0229 µM, the TGI (RPMI-8226 leukemia) was 44 µM and the TGI (NCI-H23 lung) was 0.0642 µM. The TGI (DMS 273 small cell lung) was over 100 µM, the TGI (MALME-3M melanoma) was 29.9 µM and the TGI (OVCAR-5 ovarian) was over 100 µM.

Work on `C=C1CCc2occ(C)c2C2C1C1=C(CC(C)C1=O)C1OC12C` (configuration not stated) yielded a TGI (A549 NSCLC) of over 100 µM, a TGI (SF-268 CNS) of over 100 µM and a TGI (HOP-62 NSCLC) of over 100 µM. The TGI (SF-295 CNS) was over 100 µM, the TGI (UACC-62 melanoma) was over 100 µM and the TGI (TK-10 renal) was over 100 µM. It also gave a TGI (SW-620 colon) of over 100 µM, a TGI (EKVX NSCLC) of over 100 µM and a TGI (M14 melanoma) of over 100 µM. It also gave a TGI (OVCAR-8 ovarian) of over 100 µM, a TGI (SNB-75 CNS) of over 100 µM and a TGI (SK-MEL-28 melanoma) of over 100 µM. It also gave a TGI (LOX IMVI melanoma) of over 100 µM, a TGI (OVCAR-4 ovarian) of over 100 µM and a TGI (LXFL 529 NSCLC) of over 100 µM. It also gave a TGI (NCI-H460 lung) of over 100 µM, a TGI (KM20L2 colon) of over 100 µM and a TGI (RXF 393 renal) of over 100 µM. It also gave a TGI (SK-OV-3 ovarian) of over 100 µM, a TGI (MOLT-4 leukemia) of over 100 µM and a TGI (U251 CNS) of over 100 µM. For the same compound, the TGI (786-0 renal) was over 100 µM, the TGI (CCRF-CEM leukemia) was over 100 µM and the TGI (HOP-18 NSCLC) was 6.77 µM. It also gave a TGI (SK-MEL-2 melanoma) of over 100 µM, a TGI (XF 498 CNS) of over 100 µM and a TGI (A498 renal) of over 100 µM. The TGI (M19-MEL melanoma) was over 100 µM, the TGI (ACHN renal) was over 100 µM and the TGI (HCC-2998 colon) was over 100 µM. It also gave a TGI (NCI-H226 lung) of over 100 µM, a TGI (DLD-1 colon) of over 100 µM and a TGI (KM12 colon) of over 100 µM. For the same compound, the TGI (HT29 colon) was over 100 µM, the TGI (IGROV1 ovarian) was over 100 µM and the TGI (SNB-78 CNS) was over 100 µM. The TGI (HCT-15 colon) was over 100 µM, the TGI (COLO 205 colon) was over 100 µM and the TGI (SF-539 CNS) was over 100 µM. For the same compound, the TGI (HCT-116 colon) was over 100 µM, the TGI (OVCAR-3 ovarian) was over 100 µM and the TGI (UO-31 renal) was over 100 µM. The TGI (K-562 leukemia) was over 100 µM, the TGI (SN12C renal) was over 100 µM and the TGI (DMS 114 small cell lung) was over 100 µM. The TGI (SNB-19 CNS) was over 100 µM, the TGI (NCI-H522 lung) was over 100 µM and the TGI (NCI-H23 lung) was over 100 µM. The TGI (HOP-92 NSCLC) was over 100 µM, the TGI (SK-MEL-5 melanoma) was over 100 µM and the TGI (MALME-3M melanoma) was over 100 µM. It also gave a TGI (OVCAR-5 ovarian) of over 100 µM and a TGI (UACC-257 melanoma) of over 100 µM.
